Measurements reported in PubChem BioAssay AID1919000 (Molecular Pharmacology Branch, DTP, NCI, 2023).
Where “and” joins values, the source holds several entries; their conditions need not be identical. Equal entries are not always repeated.

Tested on: 653999-131-R-J2-PDC complex spheroids, growth % test/control
Test: Anticancer human tumor 653999-131-R-J2-PDC patient-derived lung adenocarcinoma cell line growth inhibition [AhR]
Conditions: for viability, T/C: stronger effect = lower value
How it was run: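 Spheroids combined tumor cells with HUVEC endothelial cells and human MSCs as stroma. AhR antagonists were paired with standard or investigational drugs, each dosed in half-log steps down from near clinical Cmax, or from 10 microM where Cmax was unknown.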

[1] = curve of first compound, second compound 0.1 µM
[2] = curve of first compound, second compound 0.316 µM
[3] = curve of first compound, second compound 1 µM
[4] = curve of first compound, second compound 3.16 µM
[5] = curve of first compound, second compound 10 µM
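Further: spheroids exposed to agents for seven days.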
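Wherever viability, T/C is given: 100% = DMSO vehicle control viability.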

CC(C)CC(NC(=O)C(Cc1ccccc1)NC(=O)c1cnccn1)B(O)O (centres undefined) + Cc1ccccc1N=Nc1ccc(NC(=O)c2ccnn2C)c(C)c1
IC50 [1]: 20.4 nM | IC50 [2]: 20.2 nM | IC50 [3]: 19.6 nM | IC50 [4]: 20.7 nM | IC50 [5]: 22.1 nM | viability, T/C (second compound 0.1 µM, first compound 0.000949 µM): 103% | viability, T/C (second compound 0.1 µM, first compound 0.003 µM): 117% | viability, T/C (second compound 0.1 µM, first compound 0.00949 µM): 82.6% | viability, T/C (second compound 0.1 µM, first compound 0.03 µM): 33.1% | viability, T/C (second compound 0.1 µM, first compound 0.0949 µM): 12.7% | viability, T/C (second compound 0.1 µM, first compound 0.3 µM): 4.4% | viability, T/C (second compound 0.316 µM, first compound 0.000949 µM): 89.7% | viability, T/C (second compound 0.316 µM, first compound 0.003 µM): 116% | viability, T/C (second compound 0.316 µM, first compound 0.00949 µM): 91% | viability, T/C (second compound 0.316 µM, first compound 0.03 µM): 28.3% | viability, T/C (second compound 0.316 µM, first compound 0.0949 µM): 10.5% | viability, T/C (second compound 0.316 µM, first compound 0.3 µM): 6.14% | viability, T/C (second compound 1 µM, first compound 0.000949 µM): 100% | viability, T/C (second compound 1 µM, first compound 0.003 µM): 108% | viability, T/C (second compound 1 µM, first compound 0.00949 µM): 87.6% | viability, T/C (second compound 1 µM, first compound 0.03 µM): 27.4% | viability, T/C (second compound 1 µM, first compound 0.0949 µM): 14.9% | viability, T/C (second compound 1 µM, first compound 0.3 µM): 6.46% | viability, T/C (second compound 3.16 µM, first compound 0.000949 µM): 97.6% | viability, T/C (second compound 3.16 µM, first compound 0.003 µM): 96.8% | viability, T/C (second compound 3.16 µM, first compound 0.00949 µM): 86.7% | viability, T/C (second compound 3.16 µM, first compound 0.03 µM): 31.8% | viability, T/C (second compound 3.16 µM, first compound 0.0949 µM): 20.8% | viability, T/C (second compound 3.16 µM, first compound 0.3 µM): 7.43% | viability, T/C (second compound 10 µM, first compound 0.000949 µM): 89.1% | viability, T/C (second compound 10 µM, first compound 0.003 µM): 98.1% | viability, T/C (second compound 10 µM, first compound 0.00949 µM): 80% | viability, T/C (second compound 10 µM, first compound 0.03 µM): 37.8% | viability, T/C (second compound 10 µM, first compound 0.0949 µM): 25.2% | viability, T/C (second compound 10 µM, first compound 0.3 µM): 11.4%

Cn1ncnc1C1c2n[nH]c(=O)c3cc(F)cc(c23)NC1c1ccc(F)cc1 (centres undefined)
viability, T/C (compound 0.000316 µM): 94.2% and 105% and 97.9% | viability, T/C (compound 0.001 µM): 106% and 102% and 107% | viability, T/C (compound 0.00316 µM): 102% and 103% and 116% | viability, T/C (compound 0.01 µM): 91.6% and 96% and 101% | viability, T/C (compound 0.0316 µM): 94.2% and 95.2% and 105% | viability, T/C (compound 0.1 µM): 95.5% and 91.8% and 103% | IC50 (curve of compound): > 100 nM

CC1(C)CCC(CN2CCN(c3ccc(C(=O)NS(=O)(=O)c4ccc(NCC5CCOCC5)c([N+](=O)[O-])c4)c(Oc4cnc5[nH]ccc5c4)c3)CC2)=C(c2ccc(Cl)cc2)C1
viability, T/C (compound 0.0316 µM): 108% (2×) and 103% | viability, T/C (compound 0.1 µM): 97.3% and 103% and 116% | viability, T/C (compound 0.316 µM): 98% and 88.8% and 104% | viability, T/C (compound 1 µM): 105% and 102% and 104% | viability, T/C (compound 3.16 µM): 106% and 99.7% and 108% | viability, T/C (compound 10 µM): 85.9% and 58.9% and 74.9% | IC50 (curve of compound): > 10000 nM

Nc1ncn(C2CC(O)C(CO)O2)c(=O)n1 (centres undefined) + CC(CO)NC(=O)c1cc(-c2ccc(Cl)cc2)nn(-c2cnn(C)c2)c1=O
IC50 [1]: > 1000 nM | IC50 [2]: > 1000 nM | IC50 [3]: > 1000 nM | IC50 [4]: > 1000 nM | IC50 [5]: > 1000 nM | viability, T/C (second compound 0.1 µM, first compound 0.00316 µM): 106% | viability, T/C (second compound 0.1 µM, first compound 0.01 µM): 110% | viability, T/C (second compound 0.1 µM, first compound 0.0316 µM): 103% | viability, T/C (second compound 0.1 µM, first compound 0.1 µM): 89.4% | viability, T/C (second compound 0.1 µM, first compound 0.316 µM): 84.5% | viability, T/C (second compound 0.1 µM, first compound 1 µM): 79.9% | viability, T/C (second compound 0.316 µM, first compound 0.00316 µM): 106% | viability, T/C (second compound 0.316 µM, first compound 0.01 µM): 110% | viability, T/C (second compound 0.316 µM, first compound 0.0316 µM): 118% | viability, T/C (second compound 0.316 µM, first compound 0.1 µM): 89.8% | viability, T/C (second compound 0.316 µM, first compound 0.316 µM): 91.3% | viability, T/C (second compound 0.316 µM, first compound 1 µM): 83% | viability, T/C (second compound 1 µM, first compound 0.00316 µM): 104% | viability, T/C (second compound 1 µM, first compound 0.01 µM): 108% | viability, T/C (second compound 1 µM, first compound 0.0316 µM): 122% | viability, T/C (second compound 1 µM, first compound 0.1 µM): 109% | viability, T/C (second compound 1 µM, first compound 0.316 µM): 88.4% | viability, T/C (second compound 1 µM, first compound 1 µM): 86.4% | viability, T/C (second compound 3.16 µM, first compound 0.00316 µM): 106% | viability, T/C (second compound 3.16 µM, first compound 0.01 µM): 111% | viability, T/C (second compound 3.16 µM, first compound 0.0316 µM): 119% | viability, T/C (second compound 3.16 µM, first compound 0.1 µM): 110% | viability, T/C (second compound 3.16 µM, first compound 0.316 µM): 90.9% | viability, T/C (second compound 3.16 µM, first compound 1 µM): 87.8% | viability, T/C (second compound 10 µM, first compound 0.00316 µM): 117% | viability, T/C (second compound 10 µM, first compound 0.01 µM): 116% | viability, T/C (second compound 10 µM, first compound 0.0316 µM): 109% | viability, T/C (second compound 10 µM, first compound 0.1 µM): 126% | viability, T/C (second compound 10 µM, first compound 0.316 µM): 99% | viability, T/C (second compound 10 µM, first compound 1 µM): 109%
